Results published in US7033593B2, “Immunogen comprising an HIV envelope protein, a ligand and H2 peptide” (priority 2000, dated 2006).
“Also recorded” adds a separate entry of the source.

Key:
[1] = system: gp41-gp120-sCD4 complex (ADA gp41, 89.6 gp120); experiment: SPR binding of DP178 to gp41-gp120 and gp41-gp120-sCD4 complexes; parameters: species or system HIV; conditions: DP178 50 μg/ml
Protocol: FIGS. 17A and 17B show induction of HR-2 peptide binding to gp120-gp41 complex. […] Soluble 89.6 gp120 (100 μg/ml) or a gp120-CD4 mixture (gp120 pre-incubated with 0.3 mg/ml of CD4 for 30 min) was injected at 5 μl/min for 10 min over a sensor surface immobilized with ADA gp41. At the end of the injections, wash buffer (PBS) was allowed to flow until the surface was stable with no baseline drift. Roughly 300 RU of gp120 and 850 RU of gp120-CD4 formed stable complexes with the immobilized gp41 surface. […] Thus both surfaces were stable and had equivalent amount of associated gp120 or gp120-CD4.
In the preparation of HIV 89.6 gp140 envelope, there is uncleaved gp140, and cleaved gp140 components of gp120 and gp41. Thus, it is possible that HR-2 peptide could be induced to bind uncleaved gp140 and/or could be induced to bind to cleaved gp120 and gp41.

BaL gp120 = experiment: BIACORE capture assay: peptide binding to BaL gp120; parameters: species or system HIV-1 BaL; conditions: CCR5-utilizing isolate
Protocol: Rectangular bars represent the surface of the sensor chip on which sCD4 or mAbs A32 or T8 were covalently immobilized. Soluble gp120 proteins were first captured on each of these surfaces and then DP178 or sDP178 peptides were injected and their binding interactions were monitored. […] Based on their molecular size (1:27), 2000 RU of immobilized gp120 would bind 74 RU of DP178 peptide. […] Arrows point to start of injection of gp120 and DP178. […] In FIG. 27C, specific binding signal (solid) is shown after subtraction of non-specific signal (broken line). […] 50 μg/ml of DP178 peptide was flowed at 30 μl/min over each of these surfaces after 2000 RU of 89.6 gp120 was bound (FIG. 27D). In FIG. 27E, these same surfaces were also used to monitor binding of scrDP178 (50 μg/ml). […] (FIG. 27F) Binding of DP178 and DP107 peptides to A32-gp120 complex. […] Data are a representative experiment of 3 performed. […] 50 μg/ml of DP178 peptide was flowed at 30 μl/min over each of these surfaces after RU of BaL gp120 was bound (FIG. 27G). These same surfaces were also used to monitor binding of scrDP178 (50 μg/ml) (FIG. 27H).
Surface Plasmon Resonance Biosensor Measurements.

## enfuvirtide
[1]
  binding to gp41-gp120(-sCD4) complex compared to gp41 (in words): upregulated; also recorded: higher binding
BaL gp120
  binding to BaL gp120 complexed with A32, CD4 or T8 (in words): neither DP178 nor scrDP178 bound
